Reference: ChEMBL document CHEMBL3046747, “Assessment of species specificity of moulting accelerating compounds in Lepidoptera: comparison of activity between Bombyx mori and Spodoptera littoralis by in vitro reporter and in vivo toxicity assays” (Pest Manag Sci, 2010)

Experiments:
Spodoptera littoralis = test: Larvicidal activity against Spodoptera littoralis assessed as mortality applied topically after 1 week; type: functional
Bombyx mori = test: Larvicidal activity against Bombyx mori assessed as mortality applied topically after 1 week; type: functional
[1] = Selectivity ratio of EC50 for ecdysone receptor in Bombyx mori Bm5 cells to EC50 for ecdysone receptor in Spodoptera littoralis Sl2 cells; type: cell-based
[2] = target: T1, Ecdysone receptor (Bombyx mori) (UniProt P49881); test: Agonist activity at ecdysone receptor in Bombyx mori Bm5 cells after 24 hr by luciferase reporter gene assay relative to tebufenozide; type: cell-based
T1 sequence (whole entry): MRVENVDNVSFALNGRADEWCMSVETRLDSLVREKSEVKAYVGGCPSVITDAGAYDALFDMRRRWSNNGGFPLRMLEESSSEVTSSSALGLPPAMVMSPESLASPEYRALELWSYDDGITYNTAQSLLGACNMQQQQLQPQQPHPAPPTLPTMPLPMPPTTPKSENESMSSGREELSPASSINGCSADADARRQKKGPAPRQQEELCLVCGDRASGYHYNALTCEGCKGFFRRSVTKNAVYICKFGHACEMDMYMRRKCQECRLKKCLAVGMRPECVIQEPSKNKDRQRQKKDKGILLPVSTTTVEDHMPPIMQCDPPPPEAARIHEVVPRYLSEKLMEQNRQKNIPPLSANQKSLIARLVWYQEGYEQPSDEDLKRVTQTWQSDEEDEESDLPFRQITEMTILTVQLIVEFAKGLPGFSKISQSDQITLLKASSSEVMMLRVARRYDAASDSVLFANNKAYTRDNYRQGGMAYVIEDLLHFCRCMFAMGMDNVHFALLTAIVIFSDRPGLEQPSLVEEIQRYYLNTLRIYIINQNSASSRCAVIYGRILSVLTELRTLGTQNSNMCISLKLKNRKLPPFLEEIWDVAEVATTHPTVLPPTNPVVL

[3] = target: T2, Ecdysone receptor (Spodoptera littoralis) (UniProt E3UJZ5); test: Agonist activity at ecdysone receptor in Spodoptera littoralis Sl2 cells after 24 hr by luciferase reporter gene assay relative to tebufenozide; type: cell-based
T2 sequence (whole entry): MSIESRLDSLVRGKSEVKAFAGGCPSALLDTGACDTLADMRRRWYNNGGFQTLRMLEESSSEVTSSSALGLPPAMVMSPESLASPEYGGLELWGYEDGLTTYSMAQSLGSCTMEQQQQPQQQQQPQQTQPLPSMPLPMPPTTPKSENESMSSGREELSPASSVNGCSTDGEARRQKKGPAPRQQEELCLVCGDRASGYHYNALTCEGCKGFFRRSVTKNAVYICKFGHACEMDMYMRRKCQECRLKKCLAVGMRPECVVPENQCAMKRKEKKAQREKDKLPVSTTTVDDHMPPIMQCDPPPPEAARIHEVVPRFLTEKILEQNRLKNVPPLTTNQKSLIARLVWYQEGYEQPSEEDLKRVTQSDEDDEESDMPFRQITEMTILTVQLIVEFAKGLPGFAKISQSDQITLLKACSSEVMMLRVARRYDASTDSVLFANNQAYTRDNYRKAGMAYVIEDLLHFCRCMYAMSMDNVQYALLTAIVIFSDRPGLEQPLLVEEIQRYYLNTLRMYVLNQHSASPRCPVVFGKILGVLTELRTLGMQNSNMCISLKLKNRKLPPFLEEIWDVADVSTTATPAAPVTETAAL

Ecdysone receptor [4] = target: T3, Ecdysone receptor (Spodoptera littoralis, UniProt E3UJZ5); test: Agonist activity at ecdysone receptor in Spodoptera littoralis Sl2 cells after 24 hr by luciferase reporter gene assay; type: cell-based; conditions: read-out: pEC50 (converted)
T3 sequence (E3UJZ5 whole entry): T2 sequence (whole entry)

Ecdysone receptor [5] = target: T4, Ecdysone receptor (Bombyx mori, UniProt P49881); test: Agonist activity at ecdysone receptor in Bombyx mori Bm5 cells after 24 hr by luciferase reporter gene assay; type: cell-based; conditions: read-out: pEC50 (converted)
T4 sequence (P49881 whole entry): T1 sequence (whole entry)

[6] = Ratio of LD50 for Spodoptera littoralis to LD50 for Bombyx mori; type: functional

CC(C)(C)N(NC(=O)c1ccccc1)C(=O)c1ccc(Cl)c(Cl)c1Cl
pLD50 (Spodoptera littoralis): <5.4
pLD50 (Bombyx mori): <5.4
Ratio EC50 [1]: 0.69
Efficacy [2]: 79%
Efficacy [3]: 95%
EC50 (Ecdysone receptor [4]): 5250 nM
EC50 (Ecdysone receptor [5]): 3630 nM

Cc1cc(C)c(Cl)c(C(=O)N(NC(=O)c2ccccc2)C(C)(C)C)c1
Ratio EC50 [1]: 0.68
Efficacy [2]: 92%
Efficacy [3]: 87%
EC50 (Ecdysone receptor [4]): 1740 nM
EC50 (Ecdysone receptor [5]): 1170 nM

CCCCc1ccc(C(=O)NN(C(=O)c2ccccc2OCC)C(C)(C)C)cc1
Ratio EC50 [1]: 2.09
Efficacy [2]: 20%
Efficacy [3]: 41%
EC50 (Ecdysone receptor [4]): 7760 nM
EC50 (Ecdysone receptor [5]): 16200 nM

Cc1ccc(C(=O)NN(C(=O)c2cc(C)cc(C)c2Cl)C(C)(C)C)cc1
Ratio EC50 [1]: 0.22
Efficacy [2]: 108%
Efficacy [3]: 85%
EC50 (Ecdysone receptor [4]): 1350 nM
EC50 (Ecdysone receptor [5]): 302 nM

Cc1cc(C)cc(C(=O)N(NC(=O)c2cccc(C)c2C)C(C)(C)C)c1
pLD50 (Spodoptera littoralis): 6.44
pLD50 (Bombyx mori): 7.29
Ratio EC50 [1]: 0.68
Efficacy [2]: 82%
Efficacy [3]: 63%
Ratio [6]: 7.08
EC50 (Ecdysone receptor [4]): 16.2 nM
EC50 (Ecdysone receptor [5]): 11 nM

Cc1ccccc1C(=O)N(NC(=O)c1cccc(F)c1)C(C)(C)C
Ratio EC50 [1]: 0.7
Efficacy [2]: 92%
Efficacy [3]: 120%
EC50 (Ecdysone receptor [4]): 457 nM
EC50 (Ecdysone receptor [5]): 324 nM

CCCCc1ccc(C(=O)NN(C(=O)c2cc(C)cc(C)c2Cl)C(C)(C)C)cc1
Ratio EC50 [1]: 1.02
Efficacy [2]: 45%
Efficacy [3]: 69%
EC50 (Ecdysone receptor [4]): 1120 nM
EC50 (Ecdysone receptor [5]): 1150 nM

CC(C)(C)N(NC(=O)c1ccc(Cl)cc1)C(=O)c1ccccc1 [HALOFENOZIDE]
pLD50 (Spodoptera littoralis): 5.43
pLD50 (Bombyx mori): 6.52
Ratio EC50 [1]: 0.17
Efficacy [2]: 95%
Efficacy [3]: 107%
Ratio [6]: 12.3
EC50 (Ecdysone receptor [4]): 457 nM
EC50 (Ecdysone receptor [5]): 77.6 nM

COc1cccc(C(=O)NN(C(=O)c2cc(C)cc(C)c2)C(C)(C)C)c1C [METHOXYFENOZIDE]
pLD50 (Spodoptera littoralis): 7.68
pLD50 (Bombyx mori): 8.18
Ratio EC50 [1]: 0.56
Efficacy [2]: 103%
Efficacy [3]: 100%
Ratio [6]: 3.16
EC50 (Ecdysone receptor [4]): 6.03 nM
EC50 (Ecdysone receptor [5]): 3.39 nM

Cc1ccccc1C(=O)NN(C(=O)c1ccccc1Cl)C(C)(C)C
pLD50 (Spodoptera littoralis): <5.46
pLD50 (Bombyx mori): 6.69
Ratio EC50 [1]: 0.3
Efficacy [2]: 98%
Efficacy [3]: 124%
Ratio [6]: > 17
EC50 (Ecdysone receptor [4]): 437 nM
EC50 (Ecdysone receptor [5]): 129 nM

CC(C)(C)N(NC(=O)c1ccccc1)C(=O)c1ccccc1C(F)(F)F
Ratio EC50 [1]: 1.1
Efficacy [2]: 92%
Efficacy [3]: 98%
EC50 (Ecdysone receptor [4]): 794 nM
EC50 (Ecdysone receptor [5]): 871 nM

Cc1cc(C)cc(C(=O)N(NC(=O)c2ccc(C(C)(C)C)cc2)C(C)(C)C)c1
pLD50 (Spodoptera littoralis): 4.72
pLD50 (Bombyx mori): 7.19
Ratio EC50 [1]: 1.01
Efficacy [2]: 88%
Efficacy [3]: 69%
Ratio [6]: > 295
EC50 (Ecdysone receptor [4]): 7.08 nM
EC50 (Ecdysone receptor [5]): 7.08 nM

COc1ccc(C(=O)NN(C(=O)c2cc(C)cc(C)c2Cl)C(C)(C)C)cc1
Ratio EC50 [1]: 0.6
Efficacy [2]: 100%
Efficacy [3]: 105%
EC50 (Ecdysone receptor [4]): 2040 nM
EC50 (Ecdysone receptor [5]): 1230 nM

CCOc1ccccc1C(=O)N(NC(=O)c1ccc(Cl)cc1)C(C)(C)C
Ratio EC50 [1]: 0.81
Efficacy [2]: 74%
Efficacy [3]: 80%
EC50 (Ecdysone receptor [4]): 9550 nM
EC50 (Ecdysone receptor [5]): 7760 nM

CCc1ccc(C(=O)NC(CC)(CC)C(=O)c2cc(C)cc(C)c2)cc1
Ratio EC50 [1]: 0.29
Efficacy [2]: 95%
Efficacy [3]: 96%
EC50 (Ecdysone receptor [4]): 4270 nM
EC50 (Ecdysone receptor [5]): 1260 nM

CC(C)(C)N(NC(=O)c1cccc(Cl)c1)C(=O)c1ccccc1Cl
pLD50 (Spodoptera littoralis): <5.44
pLD50 (Bombyx mori): 5.82
Ratio EC50 [1]: 0.18
Efficacy [2]: 119%
Efficacy [3]: 75%
Ratio [6]: > 2.4
EC50 (Ecdysone receptor [4]): 1700 nM
EC50 (Ecdysone receptor [5]): 309 nM

CCCc1ccc(C(=O)NN(C(=O)c2ccccc2Cl)C(C)(C)C)cc1
Ratio EC50 [1]: 0.42
Efficacy [2]: 107%
Efficacy [3]: 75%
EC50 (Ecdysone receptor [4]): 74.1 nM
EC50 (Ecdysone receptor [5]): 30.9 nM

Cc1cc(C)c(Cl)c(C(=O)N(NC(=O)c2ccc3c(c2C)CCCO3)C(C)(C)C)c1
pLD50 (Spodoptera littoralis): <4.36
pLD50 (Bombyx mori): 5.01
Ratio EC50 [1]: 0.49
Efficacy [2]: 95%
Efficacy [3]: 114%
Ratio [6]: > 4.47
EC50 (Ecdysone receptor [4]): 67.6 nM
EC50 (Ecdysone receptor [5]): 33.1 nM

CCc1ccc(C(=O)NC2(C(=O)c3cc(C)cc(C)c3)CCCCC2)cc1
pLD50 (Spodoptera littoralis): <4.44
pLD50 (Bombyx mori): 6.08
Ratio EC50 [1]: 0.65
Efficacy [2]: 112%
Efficacy [3]: 101%
Ratio [6]: > 23.4
EC50 (Ecdysone receptor [4]): 120 nM
EC50 (Ecdysone receptor [5]): 77.6 nM

Cc1c(C(=O)NN(C(=O)c2ccccc2Cl)C(C)(C)C)ccc2c1CCCO2
pLD50 (Spodoptera littoralis): <4.4
pLD50 (Bombyx mori): 6.95
Ratio EC50 [1]: 0.53
Efficacy [2]: 106%
Efficacy [3]: 108%
Ratio [6]: > 355
EC50 (Ecdysone receptor [4]): 5.37 nM
EC50 (Ecdysone receptor [5]): 2.88 nM

CCc1ccc(C(=O)NN(C(=O)c2ccccc2)C(C)(C)C)cc1
pLD50 (Spodoptera littoralis): <5.49
pLD50 (Bombyx mori): 7.09
Ratio EC50 [1]: 0.16
Efficacy [2]: 84%
Efficacy [3]: 110%
Ratio [6]: > 39.8
EC50 (Ecdysone receptor [4]): 110 nM
EC50 (Ecdysone receptor [5]): 17.4 nM

CC(C)c1ccc(C(=O)NN(C(=O)c2ccccc2Cl)C(C)(C)C)cc1
Ratio EC50 [1]: 0.38
Efficacy [2]: 116%
Efficacy [3]: 95%
EC50 (Ecdysone receptor [4]): 17.4 nM
EC50 (Ecdysone receptor [5]): 6.61 nM

CC(C)(C)N(NC(=O)c1ccccc1)C(=O)c1ccccc1 [RH-5849]
pLD50 (Spodoptera littoralis): 4.75
pLD50 (Bombyx mori): 5.55
Ratio EC50 [1]: 0.34
Efficacy [2]: 87%
Efficacy [3]: 91%
Ratio [6]: 17.8
EC50 (Ecdysone receptor [4]): 1290 nM
EC50 (Ecdysone receptor [5]): 437 nM

CCc1ccc(C(=O)NN(C(=O)c2cc(C)cc(C)c2)C(C)(C)C)cc1 [TEBUFENOZIDE]
pLD50 (Spodoptera littoralis): 6.58
pLD50 (Bombyx mori): 7.6
Ratio EC50 [1]: 0.51
Efficacy [2]: 100%
Efficacy [3]: 100%
Ratio [6]: 10.5
EC50 (Ecdysone receptor [4]): 2.19 nM
EC50 (Ecdysone receptor [5]): 1.12 nM

CCCCCc1ccc(C(=O)NN(C(=O)c2ccccc2Cl)C(C)(C)C)cc1
Ratio EC50 [1]: 1.32
Efficacy [2]: 97%
Efficacy [3]: 86%
EC50 (Ecdysone receptor [4]): 324 nM
EC50 (Ecdysone receptor [5]): 427 nM

COc1ccc(C(=O)NN(C(=O)c2ccccc2Cl)C(C)(C)C)cc1
pLD50 (Spodoptera littoralis): <5.44
pLD50 (Bombyx mori): 6.53
Ratio EC50 [1]: 0.4
Efficacy [2]: 126%
Efficacy [3]: 85%
Ratio [6]: > 12.3
EC50 (Ecdysone receptor [4]): 339 nM
EC50 (Ecdysone receptor [5]): 135 nM

Cc1cc(C)cc(C(=O)C2(NC(=O)c3ccc4c(c3C)CCCO4)CCCCC2)c1
pLD50 (Spodoptera littoralis): <5.39
pLD50 (Bombyx mori): 6.53
Ratio EC50 [1]: 1.29
Efficacy [2]: 102%
Efficacy [3]: 106%
Ratio [6]: > 13.8
EC50 (Ecdysone receptor [4]): 3.39 nM
EC50 (Ecdysone receptor [5]): 4.37 nM

CCOc1ccccc1C(=O)N(NC(=O)c1ccc(OC)cc1)C(C)(C)C
Ratio EC50 [1]: 0.87
Efficacy [2]: 59%
Efficacy [3]: 45%
EC50 (Ecdysone receptor [4]): 21900 nM
EC50 (Ecdysone receptor [5]): 19100 nM

Cc1cc(C)c(Cl)c(C(=O)N(NC(=O)c2ccc(Cl)cc2)C(C)(C)C)c1
Ratio EC50 [1]: 0.42
Efficacy [2]: 93%
Efficacy [3]: 101%
EC50 (Ecdysone receptor [4]): 1070 nM
EC50 (Ecdysone receptor [5]): 447 nM

CCOc1ccccc1C(=O)N(NC(=O)c1ccc(CC)cc1)C(C)(C)C
Ratio EC50 [1]: 0.42
Efficacy [2]: 92%
Efficacy [3]: 89%
EC50 (Ecdysone receptor [4]): 6920 nM
EC50 (Ecdysone receptor [5]): 2880 nM

CCC(CC)(NC(=O)c1ccc2c(c1C)CCCO2)C(=O)c1cc(C)cc(C)c1
Ratio EC50 [1]: 1.15
Efficacy [2]: 113%
Efficacy [3]: 104%
EC50 (Ecdysone receptor [4]): 166 nM
EC50 (Ecdysone receptor [5]): 191 nM

CCCCCc1ccc(C(=O)NN(C(=O)c2cc(C)cc(C)c2Cl)C(C)(C)C)cc1
Ratio EC50 [1]: 0.5
Efficacy [2]: 45%
Efficacy [3]: 76%
EC50 (Ecdysone receptor [4]): 3550 nM
EC50 (Ecdysone receptor [5]): 1780 nM
